Results published in ChEMBL document CHEMBL1145498, “A systematic interaction map of validated kinase inhibitors with Ser/Thr kinases” (Proc Natl Acad Sci U S A, 2007).

Molecular target: T1, 3-phosphoinositide-dependent protein kinase 1 (Homo sapiens) (UniProt O15530)
T1 sequence (whole entry): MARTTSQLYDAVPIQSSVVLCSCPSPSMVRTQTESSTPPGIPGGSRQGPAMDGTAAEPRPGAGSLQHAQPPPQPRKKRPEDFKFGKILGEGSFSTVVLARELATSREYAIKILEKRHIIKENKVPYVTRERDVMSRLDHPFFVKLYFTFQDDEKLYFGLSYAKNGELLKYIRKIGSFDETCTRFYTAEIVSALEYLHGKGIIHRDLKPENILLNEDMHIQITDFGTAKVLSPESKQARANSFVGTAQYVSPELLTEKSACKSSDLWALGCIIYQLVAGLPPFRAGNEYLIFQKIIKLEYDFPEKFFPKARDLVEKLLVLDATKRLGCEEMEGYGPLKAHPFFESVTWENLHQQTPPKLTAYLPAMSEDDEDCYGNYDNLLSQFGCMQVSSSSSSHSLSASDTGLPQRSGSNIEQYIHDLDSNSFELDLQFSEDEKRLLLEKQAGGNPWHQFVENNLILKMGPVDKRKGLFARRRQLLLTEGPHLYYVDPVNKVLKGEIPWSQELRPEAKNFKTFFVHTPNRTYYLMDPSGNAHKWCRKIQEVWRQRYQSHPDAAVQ

Compound	ΔTm [°C]
CN(C)c1ccc(CC2C(=O)Nc3ccccc32)cc1 (stereo not given)	0.3
Oc1ccc(-c2nc(-c3ccc(F)cc3)c(-c3ccncc3)[nH]2)cc1	-1
O=C1NC(=O)C(c2c[nH]c3ccccc23)=C1c1c[nH]c2ccccc12	0

The next lines start with the values.

ΔTm [°C]	Compound
0	O=c1ccc2ccc(O)c(O)c2o1 [DAPHNETIN]
0.8	O=C1Nc2ccccc2/C1=C1/Nc2ccccc2/C1=N\O

Molecular target: Serine/threonine-protein kinase RIO2 (Homo sapiens) (UniProt Q9BVS4)
Sequence (Q9BVS4 whole entry, looked up): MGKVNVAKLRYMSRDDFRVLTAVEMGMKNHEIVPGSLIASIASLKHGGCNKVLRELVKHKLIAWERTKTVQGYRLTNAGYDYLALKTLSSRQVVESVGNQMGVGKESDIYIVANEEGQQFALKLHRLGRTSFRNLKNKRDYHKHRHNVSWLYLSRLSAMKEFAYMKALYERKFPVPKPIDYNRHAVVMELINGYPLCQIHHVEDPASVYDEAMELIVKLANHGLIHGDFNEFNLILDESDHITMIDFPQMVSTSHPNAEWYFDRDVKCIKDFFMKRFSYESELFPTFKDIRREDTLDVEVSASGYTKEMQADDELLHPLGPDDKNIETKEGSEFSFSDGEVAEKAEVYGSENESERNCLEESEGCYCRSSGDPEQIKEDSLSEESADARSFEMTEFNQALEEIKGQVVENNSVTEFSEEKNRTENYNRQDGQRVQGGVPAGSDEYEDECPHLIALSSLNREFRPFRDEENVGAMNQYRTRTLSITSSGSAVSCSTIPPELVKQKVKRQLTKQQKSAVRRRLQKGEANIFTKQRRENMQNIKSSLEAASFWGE

Compound	ΔTm [°C]
CN(C)c1ccc(CC2C(=O)Nc3ccccc32)cc1 (stereo not given)	0.9
Oc1ccc(-c2nc(-c3ccc(F)cc3)c(-c3ccncc3)[nH]2)cc1	-0.3
O=C1NC(=O)C(c2c[nH]c3ccccc23)=C1c1c[nH]c2ccccc12	0

Further lines, results first:

ΔTm [°C]	Compound
0.7	O=c1ccc2ccc(O)c(O)c2o1 [DAPHNETIN]
5.7	O=C1Nc2ccccc2/C1=C1/Nc2ccccc2/C1=N\O

Molecular target: Ribosomal protein S6 kinase alpha-3 (Homo sapiens) (UniProt P51812)
Sequence (P51812 whole entry): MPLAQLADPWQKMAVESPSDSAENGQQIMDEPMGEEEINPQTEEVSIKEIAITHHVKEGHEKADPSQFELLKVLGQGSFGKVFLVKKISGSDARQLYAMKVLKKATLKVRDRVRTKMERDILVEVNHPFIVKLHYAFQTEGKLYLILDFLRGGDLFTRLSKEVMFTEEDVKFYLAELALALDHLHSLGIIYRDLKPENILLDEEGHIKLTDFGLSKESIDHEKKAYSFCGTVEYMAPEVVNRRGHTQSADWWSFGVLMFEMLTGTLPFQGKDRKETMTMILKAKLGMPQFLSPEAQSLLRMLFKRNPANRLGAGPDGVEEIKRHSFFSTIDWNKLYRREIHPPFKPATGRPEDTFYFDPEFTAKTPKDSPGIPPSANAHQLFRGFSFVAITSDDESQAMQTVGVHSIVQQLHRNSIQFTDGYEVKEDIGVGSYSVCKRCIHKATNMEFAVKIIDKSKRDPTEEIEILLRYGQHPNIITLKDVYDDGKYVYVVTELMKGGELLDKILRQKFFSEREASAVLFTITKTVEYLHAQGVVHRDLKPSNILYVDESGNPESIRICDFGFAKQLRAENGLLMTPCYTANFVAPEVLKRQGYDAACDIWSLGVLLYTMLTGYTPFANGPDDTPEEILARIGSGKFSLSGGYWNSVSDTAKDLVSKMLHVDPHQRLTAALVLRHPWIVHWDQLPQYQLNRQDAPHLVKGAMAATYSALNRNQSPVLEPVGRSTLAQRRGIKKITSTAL

Compound	ΔTm [°C]
CN(C)c1ccc(CC2C(=O)Nc3ccccc32)cc1 (stereo not given)	3.6
Oc1ccc(-c2nc(-c3ccc(F)cc3)c(-c3ccncc3)[nH]2)cc1	0.6
O=C1NC(=O)C(c2c[nH]c3ccccc23)=C1c1c[nH]c2ccccc12	3.6

Results, then the molecule that gave them:

ΔTm [°C]	Compound
0	O=c1ccc2ccc(O)c(O)c2o1 [DAPHNETIN]
7.5	O=C1Nc2ccccc2/C1=C1/Nc2ccccc2/C1=N\O

Molecular target: TRAF2 and NCK-interacting protein kinase (Homo sapiens) (UniProt Q9UKE5)

Compound	ΔTm [°C]
CN(C)c1ccc(CC2C(=O)Nc3ccccc32)cc1 (stereo not given)	4.1
Oc1ccc(-c2nc(-c3ccc(F)cc3)c(-c3ccncc3)[nH]2)cc1	1.9
O=C1NC(=O)C(c2c[nH]c3ccccc23)=C1c1c[nH]c2ccccc12	1.2

Second part, the molecule after the results:

ΔTm [°C]	Compound
0.3	O=c1ccc2ccc(O)c(O)c2o1 [DAPHNETIN]
5.9	O=C1Nc2ccccc2/C1=C1/Nc2ccccc2/C1=N\O

Molecular target: Serine/threonine-protein kinase Chk2 (Homo sapiens, UniProt O96017)

Compound	ΔTm [°C]
CN(C)c1ccc(CC2C(=O)Nc3ccccc32)cc1 (stereo not given)	0.7
Oc1ccc(-c2nc(-c3ccc(F)cc3)c(-c3ccncc3)[nH]2)cc1	-0.2
O=C1NC(=O)C(c2c[nH]c3ccccc23)=C1c1c[nH]c2ccccc12	2.6

Results, then the molecule that gave them:

ΔTm [°C]	Compound
-0.1	O=c1ccc2ccc(O)c(O)c2o1 [DAPHNETIN]
4.9	O=C1Nc2ccccc2/C1=C1/Nc2ccccc2/C1=N\O

Molecular target: Tyrosine-protein kinase JAK1 (Homo sapiens) (UniProt P23458)

Compound	ΔTm [°C]
CN(C)c1ccc(CC2C(=O)Nc3ccccc32)cc1 (stereo not given)	5.5
Oc1ccc(-c2nc(-c3ccc(F)cc3)c(-c3ccncc3)[nH]2)cc1	4.4
O=C1NC(=O)C(c2c[nH]c3ccccc23)=C1c1c[nH]c2ccccc12	-0.5

Results, then the molecule that gave them:

ΔTm [°C]	Compound
0.2	O=c1ccc2ccc(O)c(O)c2o1 [DAPHNETIN]
13.1	O=C1Nc2ccccc2/C1=C1/Nc2ccccc2/C1=N\O

Molecular target: Dual specificity protein kinase CLK1 (Homo sapiens) (UniProt P49759)
Sequence (P49759 whole entry, looked up): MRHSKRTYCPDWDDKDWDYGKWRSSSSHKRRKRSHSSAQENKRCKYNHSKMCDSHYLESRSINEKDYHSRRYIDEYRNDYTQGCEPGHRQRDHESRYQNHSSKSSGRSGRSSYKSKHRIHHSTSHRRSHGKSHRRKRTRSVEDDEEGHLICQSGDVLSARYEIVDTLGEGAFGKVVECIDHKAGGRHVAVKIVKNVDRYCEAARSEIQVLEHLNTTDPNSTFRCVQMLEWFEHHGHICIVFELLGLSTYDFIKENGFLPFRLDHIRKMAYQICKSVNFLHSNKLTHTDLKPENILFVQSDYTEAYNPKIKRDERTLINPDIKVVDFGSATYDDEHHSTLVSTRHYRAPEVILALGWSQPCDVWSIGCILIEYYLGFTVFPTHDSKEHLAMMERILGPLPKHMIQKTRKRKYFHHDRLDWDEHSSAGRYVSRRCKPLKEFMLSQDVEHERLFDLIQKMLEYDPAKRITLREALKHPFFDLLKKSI

Compound	ΔTm [°C]
CN(C)c1ccc(CC2C(=O)Nc3ccccc32)cc1 (stereo not given)	2
Oc1ccc(-c2nc(-c3ccc(F)cc3)c(-c3ccncc3)[nH]2)cc1	0.8
O=C1NC(=O)C(c2c[nH]c3ccccc23)=C1c1c[nH]c2ccccc12	4.1

Other lines, results leading:

ΔTm [°C]	Compound
0	O=c1ccc2ccc(O)c(O)c2o1 [DAPHNETIN]
7.7	O=C1Nc2ccccc2/C1=C1/Nc2ccccc2/C1=N\O

Molecular target: Serine/threonine-protein kinase Nek6 (Homo sapiens) (UniProt Q9HC98)
Sequence (Q9HC98 whole entry): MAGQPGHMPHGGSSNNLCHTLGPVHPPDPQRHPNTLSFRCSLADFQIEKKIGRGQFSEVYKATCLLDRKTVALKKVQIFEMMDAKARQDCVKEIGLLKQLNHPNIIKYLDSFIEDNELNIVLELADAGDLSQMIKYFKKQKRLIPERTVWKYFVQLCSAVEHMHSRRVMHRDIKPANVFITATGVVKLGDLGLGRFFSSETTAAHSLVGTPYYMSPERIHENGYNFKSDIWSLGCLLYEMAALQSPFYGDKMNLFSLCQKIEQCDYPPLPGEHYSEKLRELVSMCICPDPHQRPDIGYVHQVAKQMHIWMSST

Compound	ΔTm [°C]
CN(C)c1ccc(CC2C(=O)Nc3ccccc32)cc1 (stereo not given)	0
Oc1ccc(-c2nc(-c3ccc(F)cc3)c(-c3ccncc3)[nH]2)cc1	0.4
O=C1NC(=O)C(c2c[nH]c3ccccc23)=C1c1c[nH]c2ccccc12	-0.2

Results, then the molecule that gave them:

ΔTm [°C]	Compound
-0.3	O=c1ccc2ccc(O)c(O)c2o1 [DAPHNETIN]
1.2	O=C1Nc2ccccc2/C1=C1/Nc2ccccc2/C1=N\O

Molecular target: 5'-AMP-activated protein kinase catalytic subunit alpha-2 (Homo sapiens) (UniProt P54646)

Compound	ΔTm [°C]
CN(C)c1ccc(CC2C(=O)Nc3ccccc32)cc1 (stereo not given)	0.3
Oc1ccc(-c2nc(-c3ccc(F)cc3)c(-c3ccncc3)[nH]2)cc1	-0.7
O=C1NC(=O)C(c2c[nH]c3ccccc23)=C1c1c[nH]c2ccccc12	1.2

Next, values leading:

ΔTm [°C]	Compound
-0.1	O=c1ccc2ccc(O)c(O)c2o1 [DAPHNETIN]
6.6	O=C1Nc2ccccc2/C1=C1/Nc2ccccc2/C1=N\O

Molecular target: Casein kinase I isoform gamma-3 (Homo sapiens) (UniProt Q9Y6M4)

Compound	ΔTm [°C]
CN(C)c1ccc(CC2C(=O)Nc3ccccc32)cc1 (stereo not given)	0.8
Oc1ccc(-c2nc(-c3ccc(F)cc3)c(-c3ccncc3)[nH]2)cc1	1.1
O=C1NC(=O)C(c2c[nH]c3ccccc23)=C1c1c[nH]c2ccccc12	0.7

Continued, values first:

ΔTm [°C]	Compound
0.4	O=c1ccc2ccc(O)c(O)c2o1 [DAPHNETIN]
2.7	O=C1Nc2ccccc2/C1=C1/Nc2ccccc2/C1=N\O

Molecular target: cAMP-dependent protein kinase catalytic subunit alpha (Homo sapiens) (UniProt P17612)

Compound	ΔTm [°C]
CN(C)c1ccc(CC2C(=O)Nc3ccccc32)cc1 (stereo not given)	0.2
Oc1ccc(-c2nc(-c3ccc(F)cc3)c(-c3ccncc3)[nH]2)cc1	2.6
O=C1NC(=O)C(c2c[nH]c3ccccc23)=C1c1c[nH]c2ccccc12	1.4

Other lines, results leading:

ΔTm [°C]	Compound
0.6	O=c1ccc2ccc(O)c(O)c2o1 [DAPHNETIN]
4	O=C1Nc2ccccc2/C1=C1/Nc2ccccc2/C1=N\O

Molecular target: T2, Dual specificity mitogen-activated protein kinase kinase 6 (Homo sapiens) (UniProt P52564)
T2 sequence (whole entry): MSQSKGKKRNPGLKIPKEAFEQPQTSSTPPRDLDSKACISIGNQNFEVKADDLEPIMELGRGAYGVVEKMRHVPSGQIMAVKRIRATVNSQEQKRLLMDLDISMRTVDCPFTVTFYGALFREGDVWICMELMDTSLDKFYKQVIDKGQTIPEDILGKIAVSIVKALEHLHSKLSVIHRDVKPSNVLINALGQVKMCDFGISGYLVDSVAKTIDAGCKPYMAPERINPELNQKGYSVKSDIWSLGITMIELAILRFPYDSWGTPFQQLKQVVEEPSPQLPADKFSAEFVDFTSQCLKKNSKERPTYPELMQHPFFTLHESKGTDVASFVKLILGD

Compound	ΔTm [°C]
CN(C)c1ccc(CC2C(=O)Nc3ccccc32)cc1 (stereo not given)	0.5
Oc1ccc(-c2nc(-c3ccc(F)cc3)c(-c3ccncc3)[nH]2)cc1	0.3
O=C1NC(=O)C(c2c[nH]c3ccccc23)=C1c1c[nH]c2ccccc12	1.1

Now from value to molecule:

ΔTm [°C]	Compound
0.1	O=c1ccc2ccc(O)c(O)c2o1 [DAPHNETIN]
6.4	O=C1Nc2ccccc2/C1=C1/Nc2ccccc2/C1=N\O

Molecular target: STE20-like serine/threonine-protein kinase (Homo sapiens) (UniProt Q9H2G2)
Sequence (Q9H2G2 whole entry, looked up): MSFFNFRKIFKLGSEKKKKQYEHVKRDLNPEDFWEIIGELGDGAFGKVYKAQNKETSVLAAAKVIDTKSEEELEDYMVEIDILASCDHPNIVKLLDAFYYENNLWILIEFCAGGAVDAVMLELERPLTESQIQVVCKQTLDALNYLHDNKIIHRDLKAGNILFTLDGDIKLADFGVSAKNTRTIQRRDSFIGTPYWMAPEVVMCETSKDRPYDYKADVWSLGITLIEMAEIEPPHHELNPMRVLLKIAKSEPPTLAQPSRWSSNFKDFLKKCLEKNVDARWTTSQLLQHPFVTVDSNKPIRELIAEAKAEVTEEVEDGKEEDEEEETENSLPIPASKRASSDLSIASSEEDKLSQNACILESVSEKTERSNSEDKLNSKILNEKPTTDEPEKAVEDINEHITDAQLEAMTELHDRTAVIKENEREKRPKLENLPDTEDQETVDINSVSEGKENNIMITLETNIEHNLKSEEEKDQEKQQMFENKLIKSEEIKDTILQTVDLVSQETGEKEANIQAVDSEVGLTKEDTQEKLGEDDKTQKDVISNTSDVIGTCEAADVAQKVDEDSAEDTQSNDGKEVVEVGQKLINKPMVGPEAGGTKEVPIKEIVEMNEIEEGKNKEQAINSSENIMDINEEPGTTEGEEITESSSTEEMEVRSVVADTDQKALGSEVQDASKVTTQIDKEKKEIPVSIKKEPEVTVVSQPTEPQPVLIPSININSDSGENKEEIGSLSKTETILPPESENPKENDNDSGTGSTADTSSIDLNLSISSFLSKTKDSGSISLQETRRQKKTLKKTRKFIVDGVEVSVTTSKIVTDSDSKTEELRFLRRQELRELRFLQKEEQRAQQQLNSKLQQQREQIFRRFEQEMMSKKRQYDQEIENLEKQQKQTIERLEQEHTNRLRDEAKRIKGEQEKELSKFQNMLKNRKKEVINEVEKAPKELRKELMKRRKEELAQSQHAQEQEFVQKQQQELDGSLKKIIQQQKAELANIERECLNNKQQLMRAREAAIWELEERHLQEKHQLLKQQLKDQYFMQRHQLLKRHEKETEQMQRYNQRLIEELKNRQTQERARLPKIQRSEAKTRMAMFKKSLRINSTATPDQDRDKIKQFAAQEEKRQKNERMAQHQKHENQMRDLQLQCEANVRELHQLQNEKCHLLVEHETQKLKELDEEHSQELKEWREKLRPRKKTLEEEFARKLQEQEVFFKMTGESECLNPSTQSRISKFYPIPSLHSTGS

Compound	ΔTm [°C]
CN(C)c1ccc(CC2C(=O)Nc3ccccc32)cc1 (stereo not given)	0.8
Oc1ccc(-c2nc(-c3ccc(F)cc3)c(-c3ccncc3)[nH]2)cc1	4.4
O=C1NC(=O)C(c2c[nH]c3ccccc23)=C1c1c[nH]c2ccccc12	4.6

Second part, the molecule after the results:

ΔTm [°C]	Compound
0.1	O=c1ccc2ccc(O)c(O)c2o1 [DAPHNETIN]
4.7	O=C1Nc2ccccc2/C1=C1/Nc2ccccc2/C1=N\O

Molecular target: Mitogen-activated protein kinase 3 (Homo sapiens, UniProt P27361)

Compound	ΔTm [°C]
CN(C)c1ccc(CC2C(=O)Nc3ccccc32)cc1 (stereo not given)	0.4
Oc1ccc(-c2nc(-c3ccc(F)cc3)c(-c3ccncc3)[nH]2)cc1	0.4
O=C1NC(=O)C(c2c[nH]c3ccccc23)=C1c1c[nH]c2ccccc12	0.1

The next lines start with the values.

ΔTm [°C]	Compound
0.3	O=c1ccc2ccc(O)c(O)c2o1 [DAPHNETIN]
0.8	O=C1Nc2ccccc2/C1=C1/Nc2ccccc2/C1=N\O

Molecular target: Casein kinase I isoform gamma-2 (Homo sapiens) (UniProt P78368)
Sequence (P78368 whole entry, looked up, canonical isoform): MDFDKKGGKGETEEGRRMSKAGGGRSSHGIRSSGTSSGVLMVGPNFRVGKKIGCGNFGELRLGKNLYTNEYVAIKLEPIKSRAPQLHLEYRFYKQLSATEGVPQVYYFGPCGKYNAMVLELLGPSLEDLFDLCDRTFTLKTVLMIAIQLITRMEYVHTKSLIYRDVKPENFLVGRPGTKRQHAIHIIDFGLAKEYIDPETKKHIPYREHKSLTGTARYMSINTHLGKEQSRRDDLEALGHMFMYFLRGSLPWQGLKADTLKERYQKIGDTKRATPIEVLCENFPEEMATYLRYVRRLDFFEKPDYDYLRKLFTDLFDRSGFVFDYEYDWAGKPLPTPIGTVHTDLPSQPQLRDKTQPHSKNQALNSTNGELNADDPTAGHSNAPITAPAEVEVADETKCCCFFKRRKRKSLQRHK

Compound	ΔTm [°C]
CN(C)c1ccc(CC2C(=O)Nc3ccccc32)cc1 (stereo not given)	0.8
Oc1ccc(-c2nc(-c3ccc(F)cc3)c(-c3ccncc3)[nH]2)cc1	0.8
O=C1NC(=O)C(c2c[nH]c3ccccc23)=C1c1c[nH]c2ccccc12	0.7

More lines, now with the values ahead:

ΔTm [°C]	Compound
0.1	O=c1ccc2ccc(O)c(O)c2o1 [DAPHNETIN]
2.6	O=C1Nc2ccccc2/C1=C1/Nc2ccccc2/C1=N\O

Molecular target: Calcium/calmodulin-dependent protein kinase type II subunit alpha (Homo sapiens) (UniProt Q9UQM7)
Sequence (Q9UQM7 whole entry): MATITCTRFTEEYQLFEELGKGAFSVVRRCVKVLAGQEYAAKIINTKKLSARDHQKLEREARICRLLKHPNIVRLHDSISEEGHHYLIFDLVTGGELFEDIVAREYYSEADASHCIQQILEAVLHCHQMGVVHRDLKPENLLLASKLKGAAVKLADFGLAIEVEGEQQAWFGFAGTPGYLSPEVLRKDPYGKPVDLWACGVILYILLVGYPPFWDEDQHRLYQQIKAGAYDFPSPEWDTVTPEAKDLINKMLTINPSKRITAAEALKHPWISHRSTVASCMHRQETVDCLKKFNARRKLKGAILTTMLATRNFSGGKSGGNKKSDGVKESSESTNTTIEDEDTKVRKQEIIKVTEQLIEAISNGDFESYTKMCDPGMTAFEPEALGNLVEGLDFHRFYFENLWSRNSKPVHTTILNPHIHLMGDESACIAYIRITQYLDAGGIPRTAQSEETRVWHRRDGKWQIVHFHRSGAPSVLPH

Compound	ΔTm [°C]
CN(C)c1ccc(CC2C(=O)Nc3ccccc32)cc1 (stereo not given)	-0.3
Oc1ccc(-c2nc(-c3ccc(F)cc3)c(-c3ccncc3)[nH]2)cc1	0.4
O=C1NC(=O)C(c2c[nH]c3ccccc23)=C1c1c[nH]c2ccccc12	3.3

Results, then the molecule that gave them:

ΔTm [°C]	Compound
0.4	O=c1ccc2ccc(O)c(O)c2o1 [DAPHNETIN]
6.1	O=C1Nc2ccccc2/C1=C1/Nc2ccccc2/C1=N\O

Molecular target: T3, Calcium/calmodulin-dependent protein kinase type IV (Homo sapiens) (UniProt Q16566)
T3 sequence (whole entry): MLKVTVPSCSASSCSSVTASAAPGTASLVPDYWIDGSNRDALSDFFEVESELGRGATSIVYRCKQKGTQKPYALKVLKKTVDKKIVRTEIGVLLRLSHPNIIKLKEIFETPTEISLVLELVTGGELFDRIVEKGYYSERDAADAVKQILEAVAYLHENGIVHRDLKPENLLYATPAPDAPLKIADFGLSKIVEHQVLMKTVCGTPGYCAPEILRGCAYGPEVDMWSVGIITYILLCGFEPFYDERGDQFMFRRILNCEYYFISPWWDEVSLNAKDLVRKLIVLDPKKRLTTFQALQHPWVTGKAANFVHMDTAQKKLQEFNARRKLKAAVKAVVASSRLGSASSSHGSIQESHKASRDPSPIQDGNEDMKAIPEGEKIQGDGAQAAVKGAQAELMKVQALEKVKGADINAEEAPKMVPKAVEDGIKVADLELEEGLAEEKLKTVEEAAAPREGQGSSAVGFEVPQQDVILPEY

Compound	ΔTm [°C]
CN(C)c1ccc(CC2C(=O)Nc3ccccc32)cc1 (stereo not given)	0.1
Oc1ccc(-c2nc(-c3ccc(F)cc3)c(-c3ccncc3)[nH]2)cc1	0.2
O=C1NC(=O)C(c2c[nH]c3ccccc23)=C1c1c[nH]c2ccccc12	2.8

Now from value to molecule:

ΔTm [°C]	Compound
-0.1	O=c1ccc2ccc(O)c(O)c2o1 [DAPHNETIN]
5.5	O=C1Nc2ccccc2/C1=C1/Nc2ccccc2/C1=N\O

Molecular target: T4, Serine/threonine-protein kinase VRK3 (Homo sapiens) (UniProt Q8IV63)
T4 sequence (whole entry): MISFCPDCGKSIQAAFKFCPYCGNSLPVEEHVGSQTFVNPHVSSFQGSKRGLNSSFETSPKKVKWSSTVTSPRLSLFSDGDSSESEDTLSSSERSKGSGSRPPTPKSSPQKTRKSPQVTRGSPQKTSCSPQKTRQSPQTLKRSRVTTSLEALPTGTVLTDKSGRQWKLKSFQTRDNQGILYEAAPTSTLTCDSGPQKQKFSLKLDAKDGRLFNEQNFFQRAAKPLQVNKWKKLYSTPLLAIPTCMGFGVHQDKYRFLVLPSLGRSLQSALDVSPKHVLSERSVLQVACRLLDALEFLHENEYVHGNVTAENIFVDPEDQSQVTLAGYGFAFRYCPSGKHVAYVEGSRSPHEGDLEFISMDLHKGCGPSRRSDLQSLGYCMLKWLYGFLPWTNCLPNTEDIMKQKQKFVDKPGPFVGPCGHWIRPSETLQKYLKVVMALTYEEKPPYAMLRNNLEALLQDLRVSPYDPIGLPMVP

Compound	ΔTm [°C]
CN(C)c1ccc(CC2C(=O)Nc3ccccc32)cc1 (stereo not given)	0.1
Oc1ccc(-c2nc(-c3ccc(F)cc3)c(-c3ccncc3)[nH]2)cc1	0.3
O=C1NC(=O)C(c2c[nH]c3ccccc23)=C1c1c[nH]c2ccccc12	1.2

More lines, now with the values ahead:

ΔTm [°C]	Compound
-0.1	O=c1ccc2ccc(O)c(O)c2o1 [DAPHNETIN]
2.3	O=C1Nc2ccccc2/C1=C1/Nc2ccccc2/C1=N\O

Molecular target: Calcium/calmodulin-dependent protein kinase kinase 2 (Homo sapiens, UniProt Q96RR4)
Sequence (Q96RR4 2-588 limits assumed): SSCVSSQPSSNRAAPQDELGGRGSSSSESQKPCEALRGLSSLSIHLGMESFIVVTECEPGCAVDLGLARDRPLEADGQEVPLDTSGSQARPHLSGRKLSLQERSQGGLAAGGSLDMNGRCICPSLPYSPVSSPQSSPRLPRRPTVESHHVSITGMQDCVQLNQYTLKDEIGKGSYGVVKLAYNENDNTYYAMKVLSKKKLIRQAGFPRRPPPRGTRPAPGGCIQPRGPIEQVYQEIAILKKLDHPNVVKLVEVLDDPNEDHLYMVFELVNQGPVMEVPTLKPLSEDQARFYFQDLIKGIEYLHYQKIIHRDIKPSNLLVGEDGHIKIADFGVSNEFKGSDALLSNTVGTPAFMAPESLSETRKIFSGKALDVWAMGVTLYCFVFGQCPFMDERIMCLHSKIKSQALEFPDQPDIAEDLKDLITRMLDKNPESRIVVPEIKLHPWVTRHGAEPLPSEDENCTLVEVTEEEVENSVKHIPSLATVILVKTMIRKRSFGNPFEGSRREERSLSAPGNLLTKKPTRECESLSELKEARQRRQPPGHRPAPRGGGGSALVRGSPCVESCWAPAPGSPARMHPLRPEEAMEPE

Compound	ΔTm [°C]
CN(C)c1ccc(CC2C(=O)Nc3ccccc32)cc1 (stereo not given)	2
Oc1ccc(-c2nc(-c3ccc(F)cc3)c(-c3ccncc3)[nH]2)cc1	-0.2
O=C1NC(=O)C(c2c[nH]c3ccccc23)=C1c1c[nH]c2ccccc12	-0.4

Now from value to molecule:

ΔTm [°C]	Compound
0.5	O=c1ccc2ccc(O)c(O)c2o1 [DAPHNETIN]
5.9	O=C1Nc2ccccc2/C1=C1/Nc2ccccc2/C1=N\O
